Values of other authors as cited in patent US20220265635A1, “TREATMENT OF NEUROLOGICAL DISEASE” (Aclipse One Inc., priority 2018, published 2022).

System: dopamine receptors
Conditions: background description; cited from earlier work

Structure (SMILES): CN1CCc2cccc3c2[C@H]1Cc1ccc(O)c(O)c1-3 [(6aR)-6-methyl-5,6,6a,7-tetrahydro-4H-dibenzo[de,g]quinoline-10,11-diol, reference compound]
- activity on dopamine receptors (in words): strong dopamine agonist
